Six compounds from US4588817A, “Antibiotic nodusmicins” (priority 1984, dated 1986) can be followed below.

Series [1] in a line: solubility remark in the MIC test. As to conditions: in place of MIC values.
For another series, the system named is S. aureus UC 80. Description: agar diffusion (dipped disc) assay, zone of inhibition, S. aureus UC 80. As to conditions: 1 mg./ml. methanolic solution, 12.7 mm paper disc, 16 hours; NZ = no zone. In general terms: In agar diffusion tests the substance spreads into inoculated agar from a disc or well.
The next series deals with S. aureus UC-76. Put plainly: MIC, microplate broth-dilution, S. aureus UC-76. As to conditions: Sensitive strain; BHI broth.
The next series relates to S. lutea UC-130. Put plainly: agar diffusion (dipped disc) assay, zone of inhibition, S. lutea UC-130. As to conditions: for zone of inhibition at 1000 µg/mL: Micrococcus luteus.
In a further series the test system is S. aureus UC-570. Put plainly: MIC, microplate broth-dilution, S. aureus UC-570. As to conditions: Sensitive strain; BHI broth.
The subject of a further series is S. aureus UC-746. Put plainly: MIC, microplate broth-dilution, S. aureus UC-746. As to conditions: Resistant to tetracycline; BHI broth.

≈ marks a conversion by molar mass, not a printed value. Where two headings read alike, the source gives them in different places.

As to `COC1CC2C=CC3C4OC2(C(C)=CC(C)C(C(C)O)OC1=O)C3C(O)C(C)C4OC(=O)c1ccccc1` (stereo not drawn) [9-O--benzoyl-, 9-O-benzoyl-nodusmicin], in series [1], the “insoluble” value was “insoluble”.
For `COC1CC2C=CC3C4OC2(C(C)=CC(C)C(C(C)O)OC1=O)C3C(O)C(C)C4OC(=O)c1cc2ccccc2[nH]1` (stereo not drawn) [U-61,273, 9-O--Indole-2-carbonyl-], the “insoluble” value in series [1] is “insoluble”.
The same measure, in the same setting: to `COC1CC2C=CC3C4OC2(C(C)=CC(C)C(C(C)OC(=O)c2ccc[nH]2)OC1=O)C3C(O)C(C)C4OC(=O)c1ccc[nH]1` (stereo not drawn) [U-60,908, 9, 18-O--Dipyrrole-2-carbonyl-] belongs “insoluble”.
Consider `COC1CC2C=CC3C4OC2(C(C)=CC(C)C(C(C)O)OC1=O)C3C(O)C(C)C4OC(=O)c1ccc[nH]1` (stereo not drawn) [U-59,760, 9-O-pyrrole-2-carbonyl ester of nodusmicin, reference compound], for which, in the series on S. aureus UC 80, the “Agar Diffusion S. aureus UC 80 (inhibition zone)” value was 38. Besides, the “MIC S. aureus UC-76” value in the series on S. aureus UC-76 is 0.125 µg/mL (≈ 0.242 µM).
Consider `COC1CC2C=CC3C4OC2(C(C)=CC(C)C(C(C)OC(=O)c2ccccc2)OC1=O)C3C(O)C(C)C4O` (stereo not drawn) [18-O--benzoyl-, 18-O-benzoylnodusmicin], for which the zone of inhibition at 1000 µg/mL came out at 24 mm in the series on S. lutea UC-130 (UC130, 16 h, read-out: Agar Diffusion S. lutea UC-130 (inhibition zone)) and 24 mm in the series with S. lutea UC-130 (UC130, read-out: zone of inhibition, S. lutea).
As for 9-O--3-Furoyl- [U-61,461], the “Agar Diffusion S. aureus UC 80 (inhibition zone)” value with S. aureus UC 80 came to 35. Further, the “MIC S. aureus UC-76” value in the series with S. aureus UC-76 was found to be 0.50 µg/mL. Also, the “MIC S. aureus UC-570” value in the series with S. aureus UC-570 came to 0.25 µg/mL. The “MIC S. aureus UC-746” value with S. aureus UC-746 was 0.50 µg/mL. Besides, the “Agar Diffusion S. lutea UC-130 (inhibition zone)” value with S. lutea UC-130 (1 mg./ml. methanolic solution, 12.7 mm paper disc, 16 hours, NZ = no zone) is recorded as 41.
